# Data taken from paper PMC6271273, “Chemo-Enzymatic Synthesis of Silybin and 2,3-Dehydrosilybin Dimers” (Molecules, 2014).
# “And” between values parts separate entries of the source, which are not always exact repeats. Equal values may be shown once. Marks after values point to notes of the source that are not given here.
# Experiments:
# rat liver microsomes = assay: Inhibition of microsomal lipid peroxidation induced by tert-butyl hydroperoxide (TBARS); type: biochemical; details: for IC50: rat liver microsomes, 1 mM tert-butyl hydroperoxide, TBARS
# Experimental: Microsomes were prepared from rat liver homogenate as described previously and resuspended in 50 mM Tris-HCl buffer with 100 mM KCl and 0.1 mM EDTA (pH 7.4). The protein concentration in the stock microsomal suspension was determined using the Bradford method to be typically ca 30 mg protein/mL. This stock suspension was stored at −80 °C and diluted to 0.625 mg protein/mL using PBS before use. 0.4 mL of the diluted microsomal suspension was then mixed with the compounds tested (final concentration 10–200 µM in 0.01 mL DMSO) and incubated for 10 min at 37 °C. tert-Butyl hydroperoxide (0.09 mL in PBS; final concentration 1 mM) was then added and the mixture was incubated at 37 °C for 30 min. The products of lipid peroxidation were determined as thiobarbituric acid reactive substances (TBARS): 0.7 mL of […] were added, the mixture was heated (90 °C; 30 min), cooled, centrifuged (10 min; 10,000 rpm; 4 °C) and the absorbance of the supernatant at 535 nm measured. The activity was calculated as the concentration of the tested compound that inhibited the color reaction with thiobarbiturate (without the tested compound) by 50% (IC50).
# [1] = tested on: human umbilical vein endothelial cells (HUVEC); assay: Cytotoxicity, MTT test, HUVEC; type: cell-based; details: 24 h incubation, read-out: IC50 viability (MTT-reducing ability) HUVEC
# Experimental: (§1) All the cells were cultured in a humidified atmosphere with 5% (v/v) CO2 at 37 °C and subcultured before conﬂuence. Human Umbilical Vein Endothelial Cells (HUVEC) were isolated from umbilical cords of healthy non-smoker women (18–35 years) as described previously, cultivated in gelatin-coated flasks in EGM and used in passages 2–6. Primary Normal human Adult epidermal Keratinocytes (NAK) were isolated from normal skin obtained from excessive tissue removed during abdominoplasty or mammoplasty of healthy adult patients as described in [36, 50], cultivated in EpiLife medium with the addition of HKGS. Mouse fibroblasts (BALB/c 3T3 cells) were purchased from the European Collection of Cell Cultures (ECACC, Salisbury, UK) and were grown in DMEM supplemented with heat-inactivated FCS (5%, v/v) and newborn FCS, streptomycin […] and glutamine (4 mM). Hepatocyte carcinoma HepG2 cells (No. 85011430, ECACC) were cultured at 37 °C in DMEM supplemented with 2 mM L-glutamine, 1% non-essential amino acids, 100 U/mL penicillin, […] and 10% fetal bovine serum (Invitrogen, Carlsbad, CA, USA).
# (§2) The cells were plated into 96-well cell culture plates and grown to near confluence. The tested compounds were placed in the respective fresh medium in serial dilutions (100 µL/well) and incubated with the cells for 24 h. After incubation, the medium was removed, the cells were washed with PBS, fresh medium containing 1 mg/mL of MTT was added and the plates were incubated for a further 3 h (37 °C). The resulting formazan was dissolved in 50 µL of 1% NH3 in DMSO, absorbance was read at 540 nm and IC50 values were obtained graphically from the dependence of cell viability on the concentration of the tested compound.
# [2] = Cytotoxicity, MTT test, range over all cells other than NAK; type: cell-based; details: human (HUVEC, HepG2) and mouse (BALB/c 3T3), all cells used other than NAK (HUVEC, BALB/c 3T3, HepG2), read-out: Cytotoxicity IC50, range over cell types
# Experimental: as §1, §2
# HepG2 cells = assay: Cytotoxicity, MTT test, HepG2; type: cell-based; details: Homo sapiens, 24 h incubation, read-out: IC50 viability (MTT-reducing ability) HepG2
# Experimental: as §1, §2
# [3] = Square wave voltammetry (in situ / ex situ) at pyrolytic graphite electrode; type: physicochemical; details: for Oxidation potential Ep1 / Oxidation potential Ep2: SWV, vs. Ag/AgCl/3 M KCl, pH 7.4, n = 3; for Oxidation potential Ep1: ascribed to oxidation of C-20 OH; for Oxidation potential Ep2: oxidation of resorcinol moiety (ring A); for Adsorption onto the electrode: ex situ (adsorptive transfer) SWV, open circuit potential
# Experimental: The monomeric flavonolignans and their dimers were analyzed using in situ voltammetry with the working electrode (PGE: pyrolytic graphite electrode) dipped in the supporting electrolyte containing the analytes and/or ex situ voltammetric analysis (adsorptive transfer, AdT technique). For this purpose, the PGE was first dipped into a 5 µL aliquot of the studied sample. After an accumulation period (30 s), the electrode was washed with deionized water and placed in an electrochemical cell containing pure supporting electrolyte. Square-wave voltammetry (SWV) and cyclic voltammetry (CV) were performed at room temperature with a µAutolab III analyzer (EcoChemie, Utrecht, The Netherlands) in a three-electrode setup (Ag/AgCl 3M KCl electrode as a reference and a platinum wire as the auxiliary electrode). SWV parameters: frequency: 200 Hz, from 0 V to +1.5 V, concentration of tested compounds (50 µM), supporting electrolyte: Britton-Robinson buffer, pH 7.4. The flavonolignans analyzed were dissolved in methanol as a stock solution of 1 mg mL^−1 (stored in a fridge in the dark), and diluted with the supporting electrolyte and/or 0.2 M acetate buffer (pH 5) for in situ and/or ex situ voltammetry. Ex situ a.c. voltammetry (out-of-phase) was carried out with a hanging mercury drop electrode (HMDE) according to the previously published paper. In this case, the flavonolignans (50 µM) were adsorbed from 0.2 M acetate buffer (pH 5) for 30 s. For current responses and potentials (Ep), the standard deviations (S.D.) were less than ±3.55% and ±3 mV for all experiments, respectively.
# [4] = DPPH radical scavenging assay; type: biochemical; details: for IC50: 20 µM DPPH, 30 min; for DPPH [% of inhibition]: 33 µM test compound, n = 4, absorbance at 517 nm after 30 min
# Experimental: Antiradical activity was evaluated spectrophotometrically as the ability of the tested substances to reduce the 1,1-diphenyl-2-picrylhydrazyl (DPPH) radical as described previously with minor modifications. Briefly, a solution of the tested substance (10 µL, final concentration 0–540 µM) were mixed with a freshly prepared methanolic DPPH solution (290 µL, final concentration 20 µM) in a microtiter plate well. After 30 min, absorbance at 517 nm was measured, percentages of inhibition were calculated using the negative control and for selected compounds the IC50 values were obtained from the inhibition curves.
# [5] = tested on: normal human adult epidermal keratinocytes (NAK); assay: Cytotoxicity, MTT test, NAK; type: cell-based; details: Keratinocyte, 24 h incubation, read-out: IC50 viability (MTT-reducing ability) NAK
# Experimental: as §1, §2
# [6] = tested on: mouse fibroblasts (BALB/c 3T3); assay: Cytotoxicity, MTT test, BALB/c 3T3; type: cell-based; details: BALB/c3T3, 24 h incubation, read-out: IC50 viability (MTT-reducing ability) BALB/c 3T3
# Experimental: as §1, §2
Compound,IC50 (rat liver microsomes),"Activity relative to the parent molecule 1a, microsomal lipid peroxidation (rat liver microsomes; stated jointly for DPPH scavenging and microsomal lipid peroxidation tests)",IC50 [1],IC50 at 24 h [2],IC50 (HepG2 cells),Oxidation potential Ep1 [3],Oxidation potential Ep2 [3],Adsorption onto the electrode [3],IC50 [4],DPPH [% of inhibition] [4],IC50 [5],IC50 [6],DPPH [% of inhibition] ([4]; 33 µM)
"COc1cc([C@H]2Oc3cc([C@H]4Oc5cc(O)cc(O)c5C(=O)[C@@H]4O)ccc3O[C@@H]2COC(=O)CCCCCCCCCCC(=O)OC[C@H]2Oc3ccc([C@H]4Oc5cc(O)cc(O)c5C(=O)[C@@H]4O)cc3O[C@@H]2c2ccc(O)c(OC)c2)ccc1O [Compound 3, bis(((2R,3R)-3-(4-Hydroxy-3-methoxyphenyl)-6-((2R,3R)-3,5,7-trihydroxy-4-oxochroman-2-yl)-2,3-dihydrobenzo[b][1,4]dioxin-2-yl)methyl) dodecanedioate]",34 ± 4.3 µM,approximately 1.6 times,7.6 ± 1.9 µM,8 to 44 µM,51.8 ± 5.9 µM,0.56 V,0.83 V,strictly limited and practically impossible,137 ± 7.5 µM,7.1 ± 2.8 ^a %,> 200 µM,23.5 ± 5.6 µM,–
"COc1cc(C2Oc3cc([C@H]4Oc5cc(OCc6cccc(COc7cc(O)c8c(c7)O[C@H](c7ccc9c(c7)OC(c7ccc(O)c(OC)c7)C(CO)O9)[C@@H](O)C8=O)c6)cc(O)c5C(=O)[C@@H]4O)ccc3OC2CO)ccc1O (stereo partly drawn) [Compound 11, (2R,2'R,3R,3'R)-7,7'-((1,3-Phenylenebis(methylene))bis(oxy))bis(3,5-dihydroxy-2-(3-(4-hydroxy-3-methoxyphenyl)-2-(hydroxymethyl)-2,3-dihydrobenzo[b][1,4]dioxin-6-yl)chroman-4-one)]",–,–,–,–,–,0.52 V,0.87 V,–,–,10.7 ± 3.1 ^a %,–,–,–
"COc1cc(C2Oc3cc([C@H]4Oc5cc(OCc6ccc(COc7cc(O)c8c(c7)O[C@H](c7ccc9c(c7)OC(c7ccc(O)c(OC)c7)C(CO)O9)[C@@H](O)C8=O)cc6)cc(O)c5C(=O)[C@@H]4O)ccc3OC2CO)ccc1O (stereo partly drawn) [Compound 10, (2R,2'R,3R,3'R)-7,7'-((1,4-Phenylenebis(methylene))bis(oxy))bis(3,5-dihydroxy-2-(3-(4-hydroxy-3-methoxyphenyl)-2-(hydroxymethyl)-2,3-dihydrobenzo[b][1,4]dioxin-6-yl)chroman-4-one)]",–,–,–,–,–,0.56 V,0.80 V,–,–,8.1 ± 3.4 ^a %,–,–,–
"COc1cc([C@H]2Oc3cc([C@H]4Oc5cc(OCc6ccc(COc7cc(O)c8c(c7)O[C@H](c7ccc9c(c7)O[C@H](c7ccc(O)c(OC)c7)[C@@H](CO)O9)[C@@H](O)C8=O)cc6)cc(O)c5C(=O)[C@@H]4O)ccc3O[C@@H]2CO)ccc1O [Compound 8, (2R,2'R,3R,3'R)-7,7'-((1,4-Phenylenebis(methylene))bis(oxy))bis(3,5-dihydroxy-2-((2R,3R)-3-(4-hydroxy-3-methoxyphenyl)-2-(hydroxymethyl)-2,3-dihydrobenzo[b][1,4]dioxin-6-yl)chroman-4-one)]",–,–,–,–,–,0.56 V,0.81 V,–,–,8.5 ± 3.7 ^a %,–,–,–
"COc1cc([C@@H]2Oc3cc([C@H]4Oc5cc(OCc6ccc(COc7cc(O)c8c(c7)O[C@H](c7ccc9c(c7)O[C@@H](c7ccc(O)c(OC)c7)[C@H](CO)O9)[C@@H](O)C8=O)cc6)cc(O)c5C(=O)[C@@H]4O)ccc3O[C@H]2CO)ccc1O [Compound 9, (2R,2'R,3R,3'R)-7,7'-((1,4-Phenylenebis(methylene))bis(oxy))bis(3,5-dihydroxy-2-((2S,3S)-3-(4-hydroxy-3-methoxyphenyl)-2-(hydroxymethyl)-2,3-dihydrobenzo[b][1,4]dioxin-6-yl)chroman-4-one)]",–,–,–,–,–,0.57 V,0.83 V,–,–,8.9 ± 4.0 ^a %,–,–,–
"COc1cc([C@H]2Oc3cc([C@H]4Oc5cc(O)cc(O)c5C(=O)[C@@H]4O)ccc3O[C@@H]2CO)ccc1O [Compound 1a, silybin A]",53.7 ± 6.1 µM,–,57.8 ± 3.6 µM,60 to 166 µM,165 ± 8.1 µM,–,–,–,225 ± 9.4 µM,6.6 ± 1.7 ^a %,> 200 µM,131 ± 8 µM,–
"COc1cc(C2Oc3cc(-c4oc5cc(O)cc(O)c5c(=O)c4O)ccc3OC2CO)ccc1O (centres unmarked) [Compound 6, 2,3-Dehydrosilybin]",14.5 ± 0.73 µM,–,20.9 ± 4.6 µM,12 to 59 µM,58.4 ± 9 µM,0.54 V,0.92 V,–,6.43 ± 0.3 µM,–,> 200 µM,11.9 ± 3 µM,83% and 82.9 ± 0.2 ^b %
"COc1cc(C2Oc3cc(-c4oc5cc(O)cc(O)c5c(=O)c4O)ccc3OC2COC(=O)CCCCCCCCCCC(=O)OCC2Oc3ccc(-c4oc5cc(O)cc(O)c5c(=O)c4O)cc3OC2c2ccc(O)c(OC)c2)ccc1O (centres unmarked) [Compound 7, bis((3-(4-Hydroxy-3-methoxyphenyl)-6-(3,5,7-trihydroxy-4-oxo-4H-chromen-2-yl)-2,3-dihydrobenzo-[b][1,4]dioxin-2-yl)methyl) dodecanedioate]",59.2 ± 5.9 µM,–,98.4 ± 10.6 µM,99 to 173 µM,172 ± 11.6 µM,0.57 V,0.99 V,strictly limited and practically impossible,29 ± 0.7 µM,33.4 ± 3.1 ^c %,> 200 µM,161 ± 9 µM,–
